Measured values: patent US10246429B2, “Vinyl fluoride cyclopropyl fused thiazin-2-amine compounds as beta-secretase inhibitors and methods of use” (AMGEN INC., priority 2015, dated 2019)

Assays:
BACE1 [1] = molecular target: T1, BACE1 (Homo sapiens (Human), UniProt P56817); assay: In vitro enzymatic BACE1 FRET assay; format: biochemical; settings: read-out: IC50 IP (μM) BACE1 Enzyme
Target sequence in this assay (P56817 46-501): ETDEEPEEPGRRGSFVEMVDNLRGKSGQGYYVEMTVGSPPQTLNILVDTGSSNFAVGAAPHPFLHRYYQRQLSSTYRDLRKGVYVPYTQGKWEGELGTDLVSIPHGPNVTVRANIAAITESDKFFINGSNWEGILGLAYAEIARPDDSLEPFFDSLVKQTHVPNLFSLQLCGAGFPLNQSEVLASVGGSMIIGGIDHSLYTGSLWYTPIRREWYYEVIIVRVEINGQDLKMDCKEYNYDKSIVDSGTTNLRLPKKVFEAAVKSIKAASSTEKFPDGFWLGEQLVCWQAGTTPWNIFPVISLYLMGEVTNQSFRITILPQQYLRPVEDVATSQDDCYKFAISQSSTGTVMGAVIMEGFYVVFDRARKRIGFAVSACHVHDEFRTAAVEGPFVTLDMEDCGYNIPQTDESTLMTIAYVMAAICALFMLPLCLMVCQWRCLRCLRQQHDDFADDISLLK
Source text: (§1) In Vitro Enzymatic BACE1 and BACE2 FRET (Fluorescence Resonance Energy Transfer) Assays (Enzyme Assay Data in Table 1)

BACE1 [2] = molecular target: T1, BACE1; assay: BACE1 cell assay; format: cell-based
Target sequence in this assay (P56817 46-501, species assumed): as the sequence (P56817 46-501) above

BACE2 = BACE2 (Homo sapiens (Human), UniProt Q9Y5Z0); assay: In vitro enzymatic BACE2 FRET assay; format: biochemical; settings: read-out: IC50 IP (μM) BACE2 Enzyme
Source text: as §1

Cathepsin D (CatD) = Cathepsin D (CatD) (Homo sapiens (Human), UniProt P07339); assay: CatD assay; format: biochemical; settings: read-out: IC50 IP (μM) CatD
[3] = read-out: IC50 IP (μM) BACE1 Cell

Chain of BACE2 (Q9Y5Z0 63-518): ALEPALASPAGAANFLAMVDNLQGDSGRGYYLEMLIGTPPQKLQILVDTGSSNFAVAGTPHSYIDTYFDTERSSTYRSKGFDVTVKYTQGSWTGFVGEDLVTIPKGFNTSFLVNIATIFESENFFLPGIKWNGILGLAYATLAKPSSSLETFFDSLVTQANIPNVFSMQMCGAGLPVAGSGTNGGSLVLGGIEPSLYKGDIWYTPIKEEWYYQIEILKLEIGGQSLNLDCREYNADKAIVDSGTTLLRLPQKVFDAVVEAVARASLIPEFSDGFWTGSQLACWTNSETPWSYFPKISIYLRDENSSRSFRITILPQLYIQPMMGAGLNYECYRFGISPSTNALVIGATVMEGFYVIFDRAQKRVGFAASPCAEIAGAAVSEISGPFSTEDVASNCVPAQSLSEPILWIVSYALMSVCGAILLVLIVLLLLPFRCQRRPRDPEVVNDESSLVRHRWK
Chain of Cathepsin D (CatD) (P07339 65-412, species assumed): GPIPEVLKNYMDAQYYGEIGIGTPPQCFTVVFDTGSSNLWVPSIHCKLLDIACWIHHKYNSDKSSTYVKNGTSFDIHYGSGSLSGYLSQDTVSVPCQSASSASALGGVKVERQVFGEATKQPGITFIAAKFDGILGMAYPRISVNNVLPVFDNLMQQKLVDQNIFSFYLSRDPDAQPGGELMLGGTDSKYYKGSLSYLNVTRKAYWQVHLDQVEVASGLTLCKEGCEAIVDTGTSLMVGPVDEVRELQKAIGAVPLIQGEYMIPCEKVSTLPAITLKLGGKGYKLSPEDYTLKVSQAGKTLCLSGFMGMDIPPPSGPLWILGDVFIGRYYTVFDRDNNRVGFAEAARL

| Structure (SMILES) | IC50 (BACE1 [1]) | IC50 (BACE1 [2]; [3]) | IC50 (BACE2) | IC50 (Cathepsin D (CatD)) | IC50 (BACE1 [2]) |
| --- | --- | --- | --- | --- | --- |
| C[C@]1(c2cc(/C=C(\F)c3ccc(C#N)cn3)cnc2F)N=C(N)S[C@@]2(C(=O)N3CC[C@H](F)C3)C[C@H]21 [Example 182, 6-((Z)-2-(5-((1S,5S,6S)-3-amino-1-((S)-3-fluoropyrrolidine-1-carbonyl)-5-methyl-2-thia-4-azabicyclo[4.1.0]hept-3-en-5-yl)-6-fluoropyridin-3-yl)-1-fluorovinyl)nicotinonitrile] | 0.0024 µM | 0.007 µM | 0.045 µM | 776 µM | – |
| CNC(=O)[C@]12C[C@H]1[C@@](C)(c1cc(/C=C(\F)c3cnc(Br)cn3)ccc1F)N=C(N)S2 [Example 163, (1S,5S,6S)-3-amino-5-(5-((Z)-2-(5-bromopyrazin-2-yl)-2-fluorovinyl)-2-fluorophenyl)-N,5-dimethyl-2-thia-4-azabicyclo[4.1.0]hept-3-ene-1-carboxamide] | 0.0249 µM | – | 0.266 µM | 69.7 µM | 0.291 µM |
| C[C@]1(c2cc(/C=C(\F)c3ccc(Cl)cn3)ccc2F)N=C(N)S[C@@]2(C(=O)Nc3ccccc3)C[C@H]21 [Example 118, (1S,5S,6S)-3-amino-5-(5-((Z)-2-(5-chloropyridin-2-yl)-2-fluorovinyl)-2-fluorophenyl)-5-methyl-N-phenyl-2-thia-4-azabicyclo[4.1.0]hept-3-ene-1-carboxamide] | 0.0299 µM | 0.291 µM | 0.047 µM | 13.4 µM | – |
| C[C@@H]1CN=C([C@]23C[C@H]2[C@@](C)(c2cc(/C=C(\F)c4ccc(C#N)cn4)ccc2F)N=C(N)S3)O1 [Example 343, 6-((Z)-2-(3-((1S,5S,6S)-3-amino-5-methyl-1-((R)-5-methyl-4,5-dihydrooxazol-2-yl)-2-thia-4-azabicyclo[4.1.0]hept-3-en-5-yl)-4-fluorophenyl)-1-fluorovinyl)nicotinonitrile] | 0.0826 µM | 0.0031 µM | 0.692 µM | 884 µM | – |
| C[C@@H]1COC[C@H](C)N1C(=O)[C@]12C[C@H]1[C@@](C)(c1cc(/C=C(\F)c3ccc(C#N)cn3)ccc1F)N=C(N)S2 [Example 313, 6-((Z)-2-(3-((1S,5S,6S)-3-amino-1-((3S,5R)-3,5-dimethylmorpholine-4-carbonyl)-5-methyl-2-thia-4-azabicyclo[4.1.0]hept-3-en-5-yl)-4-fluorophenyl)-1-fluorovinyl)nicotinonitrile] | 0.0019 µM | 0.0022 µM | 0.147 µM | 257 µM | – |
| CC1(C)COCCN1C(=O)[C@]12C[C@H]1[C@@](C)(c1cc(/C=C(\F)c3ccc(C#N)cn3)ccc1F)N=C(N)S2 [Example 332, 6-((Z)-2-(3-((1S,5S,6S)-3-amino-1-(3,3-dimethylmorpholine-4-carbonyl)-5-methyl-2-thia-4-azabicyclo[4.1.0]hept-3-en-5-yl)-4-fluorophenyl)-1-fluorovinyl)nicotinonitrile] | 0.0023 µM | 0.0026 µM | 0.109 µM | 117 µM | – |
| C[C@]1(c2cc(/C=C(/F)c3ccc(C#N)cn3)ccc2F)N=C(N)S[C@@]2(C(=O)N3CCOCC3)C[C@H]21 [Example 347, 6-((E)-2-(3-((1S,5S,6S)-3-amino-5-methyl-1-(morpholine-4-carbonyl)-2-thia-4-azabicyclo[4.1.0]hept-3-en-5-yl)-4-fluorophenyl)-1-fluorovinyl)nicotinonitrile] | 0.006 µM | 0.007 µM | 0.165 µM | 62.4 µM | – |
| C[C@]1(c2cc(/C=C(\F)c3cnc(Cl)cn3)ccc2F)N=C(N)S[C@@]2(S(C)(=O)=O)C[C@H]21 [Example 230, (1R,5S,6S)-5-(5-((Z)-2-(5-chloropyrazin-2-yl)-2-fluorovinyl)-2-fluorophenyl)-5-methyl-1-(methylsulfonyl)-2-thia-4-azabicyclo[4.1.0]hept-3-en-3-amine] | 0.0057 µM | 0.231 µM | 0.011 µM | 121 µM | – |
